The text below walks through data of patent publication US20190240176A1, “METHODS OF TREATMENT FOR MYELOID LEUKEMIA” (The University of Georgia Research Foundation, Inc., priority 2016, published 2019).

The subject of one series is K562 human BC-CML cells. The experiment in a line: Colony formation assay, K562 cells. It counts as cell-based. The conditions noted are these: for leukemic colony formation: K562, Gabapentin in combination with Imatinib, 300 cells per well, scored on day 5, FIG. 14A. The protocol: BCAT1 inhibition by Gabapentin is shown in FIG. 14A, leukemic colony formation by human blast crisis CML was attenuated in combination with the tyrosine kinase inhibitor Imatinib. […] Three hundred cells were plated per well in triplicate, and colonies were scored on day 5 (error bars indicates s.e.m. *p<0.05, **p<0.01). Inhibition of leukemic colony formation by gabapentin (Gbp) and its structural analogs was also investigated (FIG. 14B). The colony-forming ability of K562 human CML cells treated with the indicated chemicals was investigated. One hundred fifty cells were plated per well in triplicate, and colonies were scored on day 14 (error bars indicates s.e.m. ***p<0.001 compared with the vehicle control).
(§1) The human BC-CML cell line K562, the human acute leukemia cell lines MV4-11 and U937 were maintained in Roswell Park Memorial Institute 1640 medium (RPMI-1640) with 10% FBS, 100 IU/ml penicillin and 100 μg/ml streptomycin. The human acute promyelocytic leukemia cell line HL60 was maintained in RPMI supplemented with 20% FBS. All human cell lines were obtained from ATCC, and cell line authentication testing was performed by ATCC-standardized STR analysis to verify their identity in July 2016. For the colony forming assays, the cells were transduced with lentiviral shRNA and plated in triplicate in 1.2% methylcellulose medium (R&D systems) supplemented with 100 IU/ml penicillin and 100 μg/ml streptomycin, 10% FBS. Where indicated, either BCAAs (L-Leucine, L-Valine, L-Isoleucine, 4 mM each, Sigma-Aldrich), L-alanyl-L-glutamine (4 mM, GlutaMax™, Life Technologies), rapamycin (50 nM, Tocris) or gabapentin (Gbp; Tokyo Chemical Industry Co.) was added to the medium. Gbp was freshly dissolved in PBS before use. Colonies were scored on days 9 to 14. […] Colonies were scored on days 7 to 10.

Series [1] has as its system primary human BC-CML cells. Description: Colony formation assay, patient-derived primary BC-CML cells. It counts as cell-based. Conditions: patient-derived primary leukemia cells; FIGS. 3D-E, 11E-F. The protocol: (§2) Patient blood samples were obtained at the Institute of Medical Science, the University of Tokyo (IMSUT) Hospital with written informed consent according to the procedures approved by the Institutional Review Board. Mononuclear cells from the subjects were viably frozen and stored in liquid nitrogen. For in vitro colony formation with BCAT1 knockdown, primary hCD34^+ cells sorted from patient bone marrow samples were cultured in IMDM supplemented with 10% FBS, 100 IU/ml penicillin and 100 μg/ml streptomycin, 55 μM 2-mercaptoethanol, SCF, IL-3, IL-6, FLT3L and TPO. After 24 h of culture, the cells were transduced with lentiviral shRNA (cloned in FG12-UbiC-GFP), and the GFP-positive infected cells were sorted at 48 h, and 5,000-50,000 cells were plated in complete methylcellulose medium (Methocult H4435, StemCell Technologies). For the colony forming assays with Gbp, sorted hCD34^+ cells from the primary patient specimens were cultured in complete methylcellulose medium with the indicated concentrations of Gbp. Colonies were scored on days 9 to 14.

A further series concerns primary human AML cells. Description: Colony formation assay, primary de novo AML cells. It counts as cell-based. Conditions: FIG. 3G. The protocol:
as §2

The next series concerns normal HSPCs. The experiment in a line: Colony formation assay, normal HSPCs (LSK cells). It counts as cell-based, mouse. Conditions: FIGS. 9E-F. The protocol:
as §1

For series [2], the system named is intracellular BCAAs in K562 cells. The experiment in a line: Intracellular amino acid quantification in K562 cells. It counts as cell-based, human. Conditions: compared with the controls, FIGS. 12A-B. As for the experimental part: Leukemia cells or peripheral blood samples drawn from mice bearing myeloid leukemia were used for amino acid and keto acid analysis by high-performance liquid chromatography (HPLC)-fluorescence detection, as described^32-34. In brief, two hundred thousand live leukemia cells per sample were sorted and washed twice with ice-cold PBS to remove media components prior to amino acid extraction. The blood plasma was prepared by centrifugation of the peripheral blood samples at 2,000×g at 4° C. for 10 min. […] For amino acid quantification, the dried samples were treated with the amine-reactive 4-fluoro-7-nitro-2,1,3-benzoxadizole (NBD-F) to derivatize the amino acids. […] The gradient conditions were as follows: t=0 min, 10% B; t=20 min, 50% B; and t=30 min, 100% B. For NBD-Asn, Ser, Thr, Gln and Phe analysis, 25 mM citrate buffer containing 25 mM sodium perchlorate (pH 4.4) was used as the mobile phase A. NBD-amino acids were detected with excitation and emission wavelengths of 470 and 530 nm, respectively. For keto acid quantification, dried samples were treated with o-phenylenediamine (OPD) to derivatize alpha-keto acids, followed by liquid-liquid extraction with ethyl acetate. […] The fluorescence detection was carried out at the emission wavelength of 410 nm with excitation of 350 nm.

Series [3] concerns primary Lin- BC-CML cells. The experiment in a line: Colony formation assay, primary Lin- BC-CML cells. It counts as cell-based. The conditions noted are these: primary mouse Lin- BC-CML cells plated with Gbp; FIG. 2B. As for the experimental part: as §1
The next series concerns the target T1, BCAT1 (Homo sapiens, UniProt P54687).
T1 sequence (P54687 1-386): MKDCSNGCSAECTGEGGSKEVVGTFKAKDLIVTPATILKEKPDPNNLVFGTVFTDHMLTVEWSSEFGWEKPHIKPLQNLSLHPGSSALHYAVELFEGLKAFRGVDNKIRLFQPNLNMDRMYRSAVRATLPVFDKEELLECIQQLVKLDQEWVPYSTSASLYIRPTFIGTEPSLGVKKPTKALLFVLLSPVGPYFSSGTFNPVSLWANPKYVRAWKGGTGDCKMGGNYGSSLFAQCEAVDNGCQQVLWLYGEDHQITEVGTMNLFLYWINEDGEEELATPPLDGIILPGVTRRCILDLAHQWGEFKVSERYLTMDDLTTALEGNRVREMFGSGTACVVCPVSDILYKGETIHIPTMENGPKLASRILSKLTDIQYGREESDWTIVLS
Conditions: literature reference 7; cited from earlier work.

Series [4] concerns human AML cell lines (MV4-11, U937, HL60). Description: Colony formation assay, human AML cell lines. Conditions: FIG. 11G-I. It counts as cell-based. The protocol:
as §1

A further series has as its target T2, BCAT2 (Homo sapiens, UniProt O15382).
T2 sequence (O15382 28-392): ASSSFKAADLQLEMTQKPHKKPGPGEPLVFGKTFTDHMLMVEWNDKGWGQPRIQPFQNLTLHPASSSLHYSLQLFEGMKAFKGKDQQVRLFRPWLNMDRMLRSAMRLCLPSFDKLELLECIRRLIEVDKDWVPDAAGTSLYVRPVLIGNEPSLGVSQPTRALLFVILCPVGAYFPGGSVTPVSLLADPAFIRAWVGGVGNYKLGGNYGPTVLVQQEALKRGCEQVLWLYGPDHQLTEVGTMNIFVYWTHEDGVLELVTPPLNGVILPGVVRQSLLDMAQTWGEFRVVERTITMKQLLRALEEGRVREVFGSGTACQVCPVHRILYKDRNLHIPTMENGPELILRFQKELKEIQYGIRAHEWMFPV
Conditions: literature reference 7; cited from earlier work.

For series [5] the following is noted: in water and in both basic and acidic aqueous solutions; cited from earlier work.
Series [6] concerns S6 kinase (pS6K), a downstream target of mTORC1 kinase. The experiment in a line: Western blotting for phospho-S6 kinase in K562 cells. It counts as cell-based, human. Conditions: shBCAT1-d or 20 mM Gbp for 24 h, FIG. 3J. (A western blot detects proteins with antibodies after separation by electrophoresis.)

Each structure is given as a SMILES string.

On to `Cc1ccc(NC(=O)c2ccc(CN3CCN(C)CC3)cc2)cc1Nc1nccc(-c2cccnc2)n1` [Imatinib], for which the leukemic colony formation result with K562 human BC-CML cells is recorded as “attenuated”.
For the molecule `NCC1(CC(=O)O)CCCCC1` [Gbp, 1-(aminomethyl)cyclohexane acetic acid], the colony-forming ability entry in series [1] is recorded as “markedly inhibited”; in the series with K562 human BC-CML cells (K562 human BC-CML, FIG. 11A-D), “markedly inhibited”. For the same molecule, the clonal growth entry (with primary human AML cells; in series [4]) was “effectively inhibited” throughout. Moreover, in the series with normal HSPCs, the “colony-forming ability of normal HSPCs” value was “only minimally affected”. Moreover, the “intracellular concentrations of all three BCAAs” value in series [2] is listed as “significantly reduced”. Also, the leukemic colony formation result with K562 human BC-CML cells is “attenuated”. Moreover, the clonogenic growth entry in series [3] was “dose-dependent impairment”. Also, in series [3], the colony size result is “formed smaller colonies”. In addition, at BCAT1, the “inhibition of the transaminase activity of BCAT1” value is “specifically and competitively inhibit”. Moreover, the “inhibition of the transaminase activity of BCAT2” value at BCAT2 is “but not that of BCAT2”. In addition, the solubility entry in series [5] is listed as “freely soluble”. The “phosphorylation of S6 kinase (pS6K)” value in series [6] is “significantly reduced”.
